Source: patent US8709764B2, “Enzymatic demethylation of flavonoids” (Universiteit Gent, priority 2005, dated 2014)

Experiments:
[1] = system: fecal culture B supplemented with E. limosum; assay: Supplementation of selected E. limosum strain to non-converting fecal culture B incubated with IX; type: in vitro ADME, human; settings: 8-PN concentration day one versus day seven
Procedure: The most efficient E. limosum strain, obtained from the selection experiment in example 2, was supplemented to the originally non-converting culture B of example 1, to examine the capacity of this strain to initiate the production of 8-PN in the complex environment of a fecal suspension. The strain was added to the culture in proportions ranging from 0% up to 100% (v/v). This mixture was incubated with 10% (v/v) of 25 mg/L IX for a period of seven days in Brain Heart Infusion broth (with 0.5 g/l cystein-HCl) under anaerobic conditions. The concentration of 8-PN was monitored every two days (FIG. 7).

[2] = system: Eubacterium limosum ATCC 8486; assay: Incubation of IX and 8-PN with Eubacterium limosum for 13 days; type: in vitro ADME; settings: E. limosum, 8-PN as substrate, 13 days
Procedure: Eubacterium limosum ATCC 8486 and Peptostreptococcus productus ATCC 27340 were obtained from the German Collection of Microorganisms and Cell Cultures (DSMZ, Braunschweig, Germany). E. limosum was incubated for 13 days in Brain Heart Infusion broth (with 0.5 g/l cystein-HCl) with 25 mg/l of IX and 8-PN under anaerobic conditions (Table 2). This strain was able to convert IX into 8-PN. […] This feature is clearly different from the metabolic pathway as observed in liver microsomes wherein 8-PN is extensively further metabolised [Nikolic et al. (2005) J. of Mass Spectrom. 40, 289-299; Nikolic et al. (2004) Drug Metabolism and Disposition 32, 272-279].

[3] = cited from earlier work
[4] = Incubation of X or IX with human fecal cultures A-D for 8 days, conversion products detected by HPLC; type: in vitro ADME; settings: human, 25 mg/l substrate, 8 days anaerobic, average (stdev) molar percentage relative to dosed flavonoid
Procedure: (§1) Fecal slurries of 20% (w/v) fresh fecal samples were prepared by homogenizing the feces with phosphate buffered saline (0.1 M, pH 7) containing 1 g/l sodiumthioglycolate as reducing agent. The particulate material was removed by centrifugation (1 min, 500×g). The supernatant is hereafter called “the culture”.
(§2) The capacity of the cultures obtained from fecal samples A, B, C and D (further referred as cultures A-D) to degrade or transform the hop prenylflavonoid IX was tested by incubating the fecal cultures (10% (v/v)) in Brain Heart Infusion broth (with 0.5 g/l cystein-HCl) with 25 mg/l of isoxanthohumol for a period of 8 days under anaerobic conditions. Extracts of the incubations at days 0 and 8 were assayed for bioactive transformation products of IX using a Yeast Estrogenic Screen, according to De Boever et al. (2001) Env. Health Perspectives 109, 691-697, based on Routledge & Sumpter (1996) Environ. Toxicol. Chem. 15, 241-248. In brief, Saccharomyces cerevisiae, was transformed with the human estrogen receptor (ERα) gene, together with expression plasmids containing responsive elements and the lacZ reporter gene (encoding the enzyme β-galactosidase). β-galactosidase activity is quantified at 540 nm by the conversion of the chromogenic substance chlorophenol red-β-D-galactopyranoside into chlorophenol red. The bioassay response is expressed as the absorbance at 540 nm divided by the optical density at 630 nm [(A540/A630)net]. The estrogenic activity of the samples was expressed as percentage equivalence to 10 nM estradiol (E2) which elicited a 100% response in the estrogen receptor bioassay. The bioassays were performed in 96-well plates in which 10 μL of the test compounds were tested and incubated with 240 μL of the genetically modified yeast (optical density of 0.25 at 610 nm). Serial dilutions of the test compounds were made in dimethylsulfoxide, which allowed generating dose-response curves for […]. The data were fitted by a 4 parametric logistic model using the Marquardt-Levenberg algorithm (Sigmaplot 4.0, SPSS Inc., Chicago, Ill., USA) (De Boever et al. (2001) Env. Health Perspectives 109, 691-697).
(§3) To further test this transformation, cultures A-D (10% (v/v)) were incubated for 8 days in Brain Heart Infusion broth (with 0.5 g/l cystein-HCl) with either X or IX at a concentration of 25 mg/l under anaerobic conditions and conversion products were detected by HPLC (Table 1). […] However, in culture C almost 40% of 8-PN was recovered, which explains the increase in estrogenic properties of culture C.

[5] = system: human fecal cultures; assay: as above; type: in vitro ADME; settings: all fecal samples A-D, also with autoclaved cultures (non-enzymatic isomerisation)
Procedure: as §1, §2, §3

[6] = rats, 1000 mg/kg body weight of X; cited from earlier work

| Structure (SMILES) | Further conversion of 8-PN [1] | Further degradation of 8-PN [2] | Concentration needed for harmful in-vivo activity [3] [µg/mL] | recovery at 8 days, 25 mg/l ([4]; human fecal culture A (10% v/v), fecal Sample A) [%] | recovery at 8 days, 25 mg/l ([4]; human fecal culture B (10% v/v), fecal Sample B) [%] | recovery at 8 days, 25 mg/l ([4]; human fecal culture C (10% v/v), fecal Sample C) [%] | recovery at 8 days, 25 mg/l ([4]; human fecal culture D (10% v/v), fecal Sample D) [%] | Conversion of X to IX [5] | Share of recovered flavonoids in feces that was unchanged X [6] [%] |
| --- | --- | --- | --- | --- | --- | --- | --- | --- | --- |
| CC(C)=CCc1c(O)cc(O)c2c1O[C@H](c1ccc(O)cc1)CC2=O [8-PN, 8-prenylnaringenin] | No further conversion of 8-PN was detected | did not further degrade 8-PN | ~100 |  |  |  |  |  |  |
| COc1cc(O)c(CC=C(C)C)c(O)c1C(=O)/C=C/c1ccc(O)cc1 [X, 2′,4,4′-trihydroxy-3′-prenyl-6′-methoxychalcone] |  |  |  | 74.9 | 80.5 | 73.6 | 65.4 | slightly converted to IX | 89 |
